Experiments:
Nitrosomonas europaea [1] = assay: Inhibition of Nitrosomonas europaea ATCC 25978-mediated nitrification activity assessed as nitrite nitrogen formation after 7 to 10 days by Griess-Ilosvay method; format: functional, organism-based; details: read-out: pI50 (converted)
Nitrosomonas europaea [2] = assay: Inhibition of Nitrosomonas europaea ATCC 25978-mediated nitrification activity assessed as nitrite nitrogen formation at 0.1 mg/kg after 7 to 10 days by Griess-Ilosvay method relative to control; format: functional; details: values are per cent of control
[3] = Octanol-water partition coefficient, log P of the compound; format: physicochemical
Nitrosomonas europaea [4] = assay: Inhibition of Nitrosomonas europaea ATCC 25978-mediated nitrification activity assessed as nitrite nitrogen formation at 10 mg/kg after 7 to 10 days by Griess-Ilosvay method relative to control; format: functional
Nitrosomonas sp. TK794 [5] = assay: Inhibition of Nitrosomonas sp. TK794-mediated nitrification activity assessed as nitrite nitrogen formation at 500 mg/kg after 7 to 10 days by Griess-Ilosvay method relative to control; format: functional
Nitrosomonas europaea [6] = assay: Inhibition of Nitrosomonas europaea ATCC 25978-mediated nitrification activity assessed as nitrite nitrogen formation at 1 mg/kg after 7 to 10 days by Griess-Ilosvay method relative to control; format: functional; details: values are per cent of control
Nitrosomonas sp. TK794 [7] = assay: Inhibition of Nitrosomonas sp. TK794-mediated nitrification activity assessed as nitrite nitrogen formation at 1 mg/kg after 7 to 10 days by Griess-Ilosvay method relative to control; format: functional
Nitrosomonas sp. TK794 [8] = assay: Inhibition of Nitrosomonas sp. TK794-mediated nitrification activity assessed as nitrite nitrogen formation at 5 mg/kg after 7 to 10 days by Griess-Ilosvay method relative to control; format: functional
Nitrosomonas sp. TK794 [9] = assay: Inhibition of Nitrosomonas sp. TK794-mediated nitrification activity assessed as nitrite nitrogen formation at 50 mg/kg after 7 to 10 days by Griess-Ilosvay method relative to control; format: functional
Nitrosomonas sp. TK794 [10] = assay: Inhibition of Nitrosomonas sp. TK794-mediated nitrification activity assessed as nitrite nitrogen formation at 0.5 mg/kg after 7 to 10 days by Griess-Ilosvay method relative to control; format: functional
Nitrosomonas europaea [11] = assay: Inhibition of Nitrosomonas europaea ATCC 25978-mediated nitrification activity assessed as nitrite nitrogen formation at 5 mg/kg after 7 to 10 days by Griess-Ilosvay method relative to control; format: functional
Nitrosomonas sp. TK794 [12] = assay: Inhibition of Nitrosomonas sp. TK794-mediated nitrification activity assessed as nitrite nitrogen formation at 0.1 mg/kg after 7 to 10 days by Griess-Ilosvay method relative to control; format: functional
Nitrosomonas europaea [13] = assay: Inhibition of Nitrosomonas europaea ATCC 25978-mediated nitrification activity assessed as nitrite nitrogen formation at 0.5 mg/kg after 7 to 10 days by Griess-Ilosvay method relative to control; format: functional; details: values are per cent of control

In the case of `CCCNc1nc(C(Cl)(Cl)Cl)nc(C(Cl)(Cl)Cl)n1`, the IC50 (Nitrosomonas europaea [1]) is reported as 219 nM, the residual activity at 0.1 mg/kg (Nitrosomonas europaea [2]) is reported as 60% and the logP ([3]; read-out: logP) is reported as 4.19.
With `CCCCCNc1nc(C(Cl)(Cl)Cl)nc(C(Cl)(Cl)Cl)n1` the IC50 (Nitrosomonas europaea [1]) was 1230 nM, the residual activity at 0.1 mg/kg (Nitrosomonas europaea [2]) was 67.1% and the logP ([3]; read-out: logP) was 5.25.
Work on `CCCCCCCCCCCCNc1nc(C)nc(C(Cl)(Cl)Cl)n1` yielded an IC50 (Nitrosomonas europaea [1]) of 45700 nM, an inhibition in vivo at 10 mg/kg (Nitrosomonas europaea [4]) of 69.4% and a logP [3] of 9.3. For the same compound, the inhibition in vivo at 500 mg/kg (Nitrosomonas sp. TK794 [5]) was 33.2%.
With `CCCCN(C)c1nc(C)nc(C(Cl)(Cl)Cl)n1` the IC50 (Nitrosomonas europaea [1]) was 589 nM, the residual activity at 0.1 mg/kg (Nitrosomonas europaea [2]) was 59.5% and the logP ([3]; read-out: logP) was 5.65.
Work on `Cc1nc(Oc2ccc(Cl)cc2)nc(C(Cl)(Cl)Cl)n1` yielded an IC50 (Nitrosomonas europaea [1]) of 741 nM, a residual activity at 1 mg/kg (Nitrosomonas europaea [6]) of 36.1% and a logP ([3]; read-out: logP) of 5.94. It also gave an inhibition in vivo at 1 mg/kg (Nitrosomonas sp. TK794 [7]) of 47%.
Work on `Cc1nc(N)nc(C(Cl)(Cl)Cl)n1` yielded an inhibition in vivo at 5 mg/kg (Nitrosomonas sp. TK794 [8]) of 42.1% and a logP ([3]; read-out: logP) of 2.82.
With `CCOc1nc(SC)nc(C(Cl)(Cl)Cl)n1` the IC50 (Nitrosomonas europaea [1]) was 676 nM, the residual activity at 0.1 mg/kg (Nitrosomonas europaea [2]) was 64.8% and the logP ([3]; read-out: logP) was 4.64. For the same compound, the inhibition in vivo at 1 mg/kg (Nitrosomonas sp. TK794 [7]) was 60%.
`CCNc1nc(C(Cl)(Cl)Cl)nc(C(Cl)(Cl)Cl)n1` showed an IC50 (Nitrosomonas europaea [1]) of 257 nM, a residual activity at 0.1 mg/kg (Nitrosomonas europaea [2]) of 52.7% and a logP ([3]; read-out: logP) of 3.68.
For `CCCCCCCCCCNc1nc(C)nc(C(Cl)(Cl)Cl)n1`, the IC50 (Nitrosomonas europaea [1]) was 9120 nM, the inhibition in vivo at 10 mg/kg (Nitrosomonas europaea [4]) was 56.2% and the inhibition in vivo at 50 mg/kg (Nitrosomonas sp. TK794 [9]) was 50%. For the same compound, the logP ([3]; read-out: logP) was 8.27.
`CCCCc1nc(C(Cl)(Cl)Cl)nc(C(Cl)(Cl)Cl)n1` gave an IC50 (Nitrosomonas europaea [1]) of 617 nM, a residual activity at 1 mg/kg (Nitrosomonas europaea [6]) of 29.5% and a logP ([3]; read-out: logP) of 5.65. For the same compound, the inhibition in vivo at 1 mg/kg (Nitrosomonas sp. TK794 [7]) was 33.6%.
Work on `CCCNc1nc(-c2ccccc2)nc(C(Cl)(Cl)Cl)n1` yielded an IC50 (Nitrosomonas europaea [1]) of 389 nM, a residual activity at 0.1 mg/kg (Nitrosomonas europaea [2]) of 50.1% and a logP ([3]; read-out: logP) of 5.75. For the same compound, the inhibition in vivo at 0.5 mg/kg (Nitrosomonas sp. TK794 [10]) was 58.1%.
`COc1nc(-c2ccccc2)nc(C(Cl)(Cl)Cl)n1` gave an IC50 (Nitrosomonas europaea [1]) of 229 nM, a residual activity at 0.1 mg/kg (Nitrosomonas europaea [2]) of 31.4% and a logP ([3]; read-out: logP) of 5.17. It also gave an inhibition in vivo at 1 mg/kg (Nitrosomonas sp. TK794 [7]) of 39%.
`CCCCCCCCCCCCNc1nc(C(Cl)(Cl)Cl)nc(C(Cl)(Cl)Cl)n1` gave an inhibition in vivo at 5 mg/kg (Nitrosomonas sp. TK794 [8]) of 55.2%, an IC50 (Nitrosomonas europaea [1]) of 5750 nM and an inhibition in vivo at 5 mg/kg (Nitrosomonas europaea [11]) of 50%. It also gave a logP ([3]; read-out: logP) of 8.96.
For `CCCOc1nc(-c2ccccc2)nc(C(Cl)(Cl)Cl)n1`, the inhibition in vivo at 5 mg/kg (Nitrosomonas sp. TK794 [8]) was 47.9%, the IC50 (Nitrosomonas europaea [1]) was 3390 nM and the residual activity at 1 mg/kg (Nitrosomonas europaea [6]) was 48.5%. It also gave a logP ([3]; read-out: logP) of 6.22.
With `Nc1nc(-c2ccccc2)nc(C(Cl)(Cl)Cl)n1` the inhibition in vivo at 5 mg/kg (Nitrosomonas sp. TK794 [8]) was 49.7%, the IC50 (Nitrosomonas europaea [1]) was 363 nM and the residual activity at 1 mg/kg (Nitrosomonas europaea [6]) was 20.8%. It also gave a logP ([3]; read-out: logP) of 4.02.
In the case of `CCCCNc1nc(C)nc(C(Cl)(Cl)Cl)n1`, the IC50 (Nitrosomonas europaea [1]) is reported as 1510 nM, the residual activity at 0.1 mg/kg (Nitrosomonas europaea [2]) is reported as 79.5% and the logP ([3]; read-out: logP) is reported as 5.08.
Work on `COc1nc(C(Cl)(Cl)Cl)nc(C(Cl)(Cl)Cl)n1` yielded an IC50 (Nitrosomonas europaea [1]) of 457 nM, a residual activity at 0.1 mg/kg (Nitrosomonas europaea [2]) of 27.4% and a logP ([3]; read-out: logP) of 3.59. The inhibition in vivo at 1 mg/kg (Nitrosomonas sp. TK794 [7]) was 47.8%.
With `Nc1nc(C(Cl)(Cl)Cl)nc(C(Cl)(Cl)Cl)n1` the logP ([3]; read-out: logP) was 2.45 and the inhibition in vivo at 1 mg/kg (Nitrosomonas sp. TK794 [7]) was 56.2%.
For `CCCCCNc1nc(C)nc(C(Cl)(Cl)Cl)n1`, the IC50 (Nitrosomonas europaea [1]) was 501 nM, the residual activity at 0.1 mg/kg (Nitrosomonas europaea [2]) was 61.5% and the logP ([3]; read-out: logP) was 5.61.
With `CCOc1nc(-c2ccccc2)nc(C(Cl)(Cl)Cl)n1` the IC50 (Nitrosomonas europaea [1]) was 1050 nM, the residual activity at 1 mg/kg (Nitrosomonas europaea [6]) was 31.4% and the logP ([3]; read-out: logP) was 5.7. It also gave an inhibition in vivo at 1 mg/kg (Nitrosomonas sp. TK794 [7]) of 51.2%.
In the case of `CCNc1nc(OC)nc(C(Cl)(Cl)Cl)n1`, the IC50 (Nitrosomonas europaea [1]) is reported as 331 nM, the residual activity at 0.1 mg/kg (Nitrosomonas europaea [2]) is reported as 49.1% and the logP ([3]; read-out: logP) is reported as 3.57. The inhibition in vivo at 0.1 mg/kg (Nitrosomonas sp. TK794 [12]) was 56.8%.
`CCCCN(CC)c1nc(C)nc(C(Cl)(Cl)Cl)n1` gave an IC50 (Nitrosomonas europaea [1]) of 955 nM, a residual activity at 0.1 mg/kg (Nitrosomonas europaea [2]) of 52.9% and a logP ([3]; read-out: logP) of 6.17.
With `Cc1nc(Nc2ccccc2)nc(C(Cl)(Cl)Cl)n1` the IC50 (Nitrosomonas europaea [1]) was 501 nM, the residual activity at 0.1 mg/kg (Nitrosomonas europaea [2]) was 66% and the logP ([3]; read-out: logP) was 4.7. It also gave an inhibition in vivo at 1 mg/kg (Nitrosomonas sp. TK794 [7]) of 39%.
Compound `CCCCCCNc1nc(C(Cl)(Cl)Cl)nc(C(Cl)(Cl)Cl)n1` has an IC50 (Nitrosomonas europaea [1]) of 1660 nM, a residual activity at 1 mg/kg (Nitrosomonas europaea [6]) of 42.7% and a logP ([3]; read-out: logP) of 5.79.
`CCOc1nc(C(Cl)(Cl)Cl)nc(C(Cl)(Cl)Cl)n1` showed an IC50 (Nitrosomonas europaea [1]) of 437 nM, a residual activity at 1 mg/kg (Nitrosomonas europaea [6]) of 27.3% and a logP ([3]; read-out: logP) of 4.14. It also gave an inhibition in vivo at 1 mg/kg (Nitrosomonas sp. TK794 [7]) of 25.8%.
Work on `CSc1nc(C(Cl)(Cl)Cl)nc(C(Cl)(Cl)Cl)n1` yielded an IC50 (Nitrosomonas europaea [1]) of 186 nM, a residual activity at 0.5 mg/kg (Nitrosomonas europaea [13]) of 18.7% and a logP ([3]; read-out: logP) of 4.21. The inhibition in vivo at 0.5 mg/kg (Nitrosomonas sp. TK794 [10]) was 41.3%.
`CCCCc1nc(N)nc(C(Cl)(Cl)Cl)n1` gave an IC50 (Nitrosomonas europaea [1]) of 1200 nM, a residual activity at 1 mg/kg (Nitrosomonas europaea [6]) of 29% and a logP ([3]; read-out: logP) of 4.4. The inhibition in vivo at 1 mg/kg (Nitrosomonas sp. TK794 [7]) was 39.7%.

Reference: ChEMBL document CHEMBL3045179, “Mode of Action and QSAR Studies of Nitrification Inhibitors” (J Pestic Sci, 1997)
